From PubChem BioAssay (NCI) come the findings set out here.

Some test systems named below: BT-549 breast; COLO 205 colon; HCC-2998 colon; HCT-15 colon; MDA-MB-231 breast; NCI/ADR-RES ovarian; SK-MEL-5 melanoma; SNB-75 CNS; SW-620 colon; RXF 393 renal; NCI-H522 lung.
Holding throughout (assay): NCI-60 cell line screen, 48 h

Structures are written as SMILES.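 Briefly, cells in 96-well plates were exposed to five compound concentrations for 48 h, and endpoints were estimated by linear interpolation. TGI: total growth inhibition.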 A value given as a limit tells only on which side of the number the result lay.

Turning to `C[n+]1c2ccccc2c(C(=O)Nc2ccc(S(=O)(=O)Nc3ncccn3)cc2)c2ccccc21`, the TGI with BT-549 breast, in the assay with COLO 205 colon, in the assay on HCC-2998 colon, in the assay on HCT-15 colon, in the assay on MDA-MB-231 breast and in the assay on NCI/ADR-RES ovarian was greater than 100 µM in each case. Besides, the TGI with SK-MEL-5 melanoma, in the assay with SNB-75 CNS and with SW-620 colon was greater than 100 µM throughout.
Turning to `CC(=O)O[C@H]1C(=O)[C@@]2(C)[C@H]([C@H](OC(=O)c3ccco3)[C@]3(O)C[C@H](OC(=O)[C@H](O)[C@@H](NC(=O)c4ccccc4)c4ccccc4)C(C)=C1C3(C)C)[C@]1(OC(C)=O)CO[C@@H]1C[C@@H]2O`, the TGI in the assay on BT-549 breast is greater than 25 µM; in the assay on COLO 205 colon, greater than 5.82 µM; in the assay on HCC-2998 colon, 20 µM; in the assay with HCT-15 colon, greater than 25 µM; in the assay on MDA-MB-231 breast, greater than 25 µM; in the assay with NCI/ADR-RES ovarian, greater than 25 µM. In addition, the TGI in the assay with RXF 393 renal was 3.76 µM; with SNB-75 CNS it was 3.87 µM; in the assay on SW-620 colon it was greater than 25 µM.
As for `S=c1[nH]nc(CCCCCCCCc2n[nH]c(=S)o2)o1`, the TGI with BT-549 breast, in the assay on COLO 205 colon, in the assay on HCT-15 colon, in the assay with MDA-MB-231 breast, with NCI/ADR-RES ovarian and in the assay with RXF 393 renal was greater than 100 µM throughout. The TGI in the assay with SK-MEL-5 melanoma, with SNB-75 CNS and with SW-620 colon was greater than 100 µM in each case.
`C/C(Nc1ccc(Cl)cc1)=C1/CCOC1=O`: the TGI with BT-549 breast, in the assay on HCC-2998 colon, with HCT-15 colon, with MDA-MB-231 breast, in the assay on NCI-H522 lung and in the assay with NCI/ADR-RES ovarian was greater than 100 µM throughout. In addition, the TGI with RXF 393 renal, in the assay with SNB-75 CNS and in the assay on SW-620 colon was greater than 100 µM throughout.
In the case of `COc1ccc(/C=N/NC(=S)Nc2cc(C)ccc2OC)cc1`, the TGI in the assay with BT-549 breast is 88.8 µM; in the assay on COLO 205 colon, 32.7 µM; in the assay with HCT-15 colon, greater than 100 µM; in the assay with NCI-H522 lung, 55.9 µM; in the assay on NCI/ADR-RES ovarian it was greater than 100 µM; in the assay on RXF 393 renal, greater than 100 µM. In addition, the TGI in the assay on SK-MEL-5 melanoma is 30 µM; with SNB-75 CNS, greater than 100 µM; in the assay on SW-620 colon, greater than 100 µM.
Turning to `C#CCOC(=O)C(=[N+]=[N-])C(=O)CC(C)C`, the TGI with BT-549 breast, with COLO 205 colon, in the assay on HCC-2998 colon, with HCT-15 colon, in the assay on MDA-MB-231 breast and in the assay with NCI/ADR-RES ovarian was greater than 10 µM each time. For the same molecule, the TGI with RXF 393 renal, with SK-MEL-5 melanoma and with SW-620 colon was greater than 10 µM in each case.
Regarding `COc1cccc(CCCNC(=O)Cc2ccccc2CO)c1`, the TGI with BT-549 breast, in the assay on COLO 205 colon, in the assay with HCC-2998 colon, with HCT-15 colon, in the assay on MDA-MB-231 breast and with NCI/ADR-RES ovarian was greater than 100 µM in each case. The TGI with SK-MEL-5 melanoma, in the assay with SNB-75 CNS and in the assay on SW-620 colon was greater than 100 µM each time.
Take `CN(C)C(=O)Oc1ccc(C(=S)Nc2ccccc2)cc1`: the TGI with BT-549 breast was 79.7 µM; in the assay on COLO 205 colon, greater than 100 µM; with HCC-2998 colon, greater than 100 µM; with HCT-15 colon, greater than 100 µM; in the assay with NCI-H522 lung, greater than 100 µM; with NCI/ADR-RES ovarian it was 91.8 µM. In addition, the figures for the TGI with SK-MEL-5 melanoma and in the assay with SW-620 colon were 55.6 µM and greater than 100 µM, respectively.
Take `CCOC(=O)c1cc2c3c(cc(OC)c2[nH]1)N(C(=O)OCC)CC3`: the TGI in the assay on BT-549 breast, with COLO 205 colon, in the assay on HCC-2998 colon, with HCT-15 colon, in the assay on MDA-MB-231 breast and in the assay on NCI/ADR-RES ovarian was greater than 100 µM each time. Besides, the TGI with RXF 393 renal, with SK-MEL-5 melanoma, in the assay on SNB-75 CNS and in the assay with SW-620 colon was greater than 100 µM each time.
As to `COC(=O)C(=O)C(C(=O)C(=O)Nc1ccc(C)c(C)c1)c1nc2ccc([N+](=O)[O-])cc2[nH]c1=O` (configuration not stated), the TGI in the assay with BT-549 breast, with HCC-2998 colon, with HCT-15 colon, in the assay with MDA-MB-231 breast, in the assay on NCI-H522 lung and in the assay on NCI/ADR-RES ovarian was greater than 100 µM throughout. Also, the TGI in the assay with RXF 393 renal, in the assay with SK-MEL-5 melanoma, in the assay on SNB-75 CNS and in the assay on SW-620 colon was greater than 100 µM in each case.
For the molecule `Cc1cc2c(cc1Cl)Sc1n[nH]c(=O)n1S2(=O)=O`, the TGI in the assay with BT-549 breast, in the assay with COLO 205 colon, with HCC-2998 colon, in the assay with HCT-15 colon, with MDA-MB-231 breast and in the assay on NCI-H522 lung was greater than 100 µM in each case. For the same molecule, the TGI with NCI/ADR-RES ovarian, with SK-MEL-5 melanoma, in the assay on SNB-75 CNS and with SW-620 colon was greater than 100 µM each time.
For the molecule `O=c1c2cc(I)ccc2nc(-c2cccs2)n1O`, the TGI in the assay with BT-549 breast, in the assay with COLO 205 colon, in the assay on HCC-2998 colon, with HCT-15 colon, with NCI-H522 lung and with NCI/ADR-RES ovarian was greater than 100 µM each time. The TGI with RXF 393 renal, with SK-MEL-5 melanoma and in the assay on SW-620 colon was greater than 100 µM each time.
In the case of `Cc1cc(C)n2c(nc3ccccc32)c1C#N`, the TGI in the assay with BT-549 breast, in the assay on COLO 205 colon, in the assay on HCC-2998 colon, in the assay with HCT-15 colon, with MDA-MB-231 breast and in the assay with NCI/ADR-RES ovarian was greater than 100 µM in each case. Further, the TGI in the assay on RXF 393 renal, in the assay with SK-MEL-5 melanoma and with SW-620 colon was greater than 100 µM throughout.
Consider `N#Cc1c(N)nc(Sc2ccccc2N)c(C#N)c1-c1ccccc1`, for which the TGI is 95.9 µM in the assay on BT-549 breast; greater than 100 µM with COLO 205 colon; 38.3 µM with HCC-2998 colon; greater than 100 µM in the assay with HCT-15 colon; 45.5 µM in the assay on MDA-MB-231 breast; 42.5 µM in the assay on NCI/ADR-RES ovarian. In addition, the TGI in the assay on SK-MEL-5 melanoma and in the assay with SW-620 colon was greater than 100 µM throughout.
